Where “and” joins values, the source holds several entries; their conditions need not be identical. Identical values can stand only once.
Legend:
σ1-receptor = target: T1, σ1-receptor (Cavia porcellus, UniProt Q60492); experiment: σ1-receptor binding assay, [3H]-(+)-pentazocine, guinea pig brain membranes; details: [3H]-(+)-pentazocine 5.0 nM; for % Displacement (10^−6 M): 10^−6 M compound
T1 construct: Guinea pig brains were homogenized in 10 vols; (w/v) of Tris-HCl 50 mM 0.32 M sucrose; from tissue; host or cells: guinea pig brain membranes
T1 sequence (Q60492 whole entry): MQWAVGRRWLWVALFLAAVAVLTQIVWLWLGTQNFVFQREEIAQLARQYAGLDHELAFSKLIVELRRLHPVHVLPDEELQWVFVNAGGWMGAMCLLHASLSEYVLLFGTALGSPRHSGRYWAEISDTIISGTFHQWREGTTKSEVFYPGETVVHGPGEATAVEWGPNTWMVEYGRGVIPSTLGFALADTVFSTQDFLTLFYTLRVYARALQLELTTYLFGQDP
Experimental: Brain membrane preparation and binding assays for the σ1-receptor were performed as described (DeHaven-Hudkins, D. L., L.C. Fleissner, and F. Y. Ford-Rice, 1992, Characterization of the binding of [^3H](+)pentazocine to σ recognition sites in guinea pig brain, Eur. J. Pharmacol. 227, 371-378) with some modifications. Guinea pig brains were homogenized in 10 vols. (w/v) of Tris-HCl 50 mM 0.32 M sucrose, pH 7.4, with a Kinematica Polytron PT 3000 at 15000 r.p.m. for 30 s. The homogenate was centrifuged at 1000 g for 10 min at 4° C. and the supernatants collected and centrifuged again at 48000 g for 15 min at 4° C. The pellet was resuspended in 10 volumes of Tris-HCl buffer (50 mM, pH 7.4), incubated at 37° C. for 30 min, and centrifuged at 48000 g for 20 min at 4° C. Following this, the pellet was re-suspended in fresh Tris-HCl buffer (50 mM, pH 7.4) and stored on ice until use.
The radioligand used was [^3H]-(+)-pentazocine at 5.0 nM and the final volume was 200 μl. The incubation was initiated with the addition of 100 μA of membrane at a final tissue concentration of approximately 5 mg tissue net weight/mL and the incubation time was 150 m. at 37° C. After incubation, the membranes were collected onto pretreated glass fiber filterplate (MultiScreen-FC, Millipore), with polyethylenimine 0.1%. The filters were washed two times with 200 μA of washing buffer (50 mM Tris Cl, pH=7.4) and then 25 μA of Ecoscint H liquid scintillation cocktail were added. Microplates were allowed to set for several hours and then quantified by liquid scintillation spectrophotometry (1450 Microbeta, Wallac). Nonspecific binding was determined with 1 μM haloperidol.

SMILES | Ki (σ1-receptor) | melting point | % Displacement (10^−6 M) (σ1-receptor) [%]
CCc1nnn2c1CO[C@@H]1CN(Cc3ccc(OC)cc3)C[C@H]12 (relative stereo) [Example 3, (5a,8a-trans)-3-ethyl-7-(4-methoxybenzyl)-4,5a,6,7,8,8a-hexahydro pyrrolo[3,4-b][1,2,3]triazolo[1,5-d][1,4]oxazine] | 298 ± 76.2 nM |  | 
c1ccc(-c2nnn3c2CO[C@@H]2CNC[C@H]23)cc1 (relative stereo) [Example 13, (5a,8a-trans)-3-phenyl-4,5a,6,7,8,8a-hexahydropyrrolo[3,4-b][1,2,3] triazolo[1,5-d][1,4]oxazine] | 283 nM and 262 nM | 165 to 167 °C | 
O=S(=O)(c1ccc(Br)cc1)N1CC2OCc3cnnn3[C@@H]2C1 (stereo partly drawn) [Example 15, (5a,8a-trans)-7-(4-bromophenylsulfonyl)-4,5a,6,7,8,8a-hexahydro pyrrolo[3,4-b][1,2,3]triazolo[1,5-d][1,4]oxazine] |  | 220 to 221 °C | 
COc1ccc(CN2C[C@@H]3[C@@H](C2)OCc2c(C)nnn23)cc1 (relative stereo) [Example 2, (5a,8a-trans)-7-(4-methoxybenzyl)-3-methyl-4,5a,6,7,8,8a-hexahydro pyrrolo[3,4-b][1,2,3]triazolo[1,5-d][1,4]oxazine] | > 1000 nM |  | 
Clc1ccc(N2CC3OCc4cnnn4[C@@H]3C2)cc1 (stereo partly drawn) [Example 43, (5a,8a-trans)-7-(4-chlorophenyl)-4,5a,6,7,8,8a-hexahydropyrrolo[3,4-b][1,2,3]triazolo[1,5-d][1,4]oxazine] |  | 238 °C (dec.) | 
c1ccc(CN2C[C@@H]3[C@@H](C2)OCc2cnnn23)cc1 (relative stereo) [Example 4, (5a,8a-trans)-7-benzyl-4,5a,6,7,8,8a-hexahydropyrrolo[3,4-b][1,2,3] triazolo[1,5-d][1,4]oxazine] |  | 101 to 102 °C | <50
O=S(=O)(c1ccc(F)cc1)N1CC2OCc3cnnn3[C@@H]2C1 (stereo partly drawn) [Example 18, (5a,8a-trans)-7-(4-fluorophenylsulfonyl)-4,5a,6,7,8,8a-hexahydro pyrrolo[3,4-b][1,2,3]triazolo[1,5-d][1,4]oxazine] |  | 208 to 209 °C | 
O=C(Nc1ccccc1)N1CC2OCc3cnnn3[C@@H]2C1 (stereo partly drawn) [Example 32, (5a,8a-trans)-N-phenyl-5a,6,8,8a-tetrahydropyrrolo[3,4-b][1,2,3] triazolo[1,5-d][1,4]oxazine-7(4H)-carboxamide] |  | 227 to 228 °C | 

Results, then the compound that gave them:

Ki (σ1-receptor) | melting point | % Displacement (10^−6 M) (σ1-receptor) [%] | SMILES
26.9 ± 4.4 nM | 154 to 155 °C |  | c1ccc(CN2C[C@@H]3[C@@H](C2)OCc2c(-c4ccccc4)nnn23)cc1 (relative stereo) [Example 11, (5a,8a-trans)-7-benzyl-3-phenyl-4,5a,6,7,8,8a-hexahydropyrrolo[3,4-b][1,2,3]triazolo[1,5-d][1,4]oxazine]
 | 197 to 198 °C | 87 | Clc1ccc(-c2nnn3c2CO[C@@H]2CN(Cc4ccccc4)C[C@H]23)cc1 (relative stereo) [Example 9, (5a,8a-trans)-7-benzyl-3-(4-chlorophenyl)-4,5a,6,7,8,8a-hexahydro pyrrolo[3,4-b][1,2,3]triazolo[1,5-d][1,4]oxazine]
31.3 ± 8.7 nM | 137 to 138 °C |  | FC(F)(F)c1ccc(-c2nnn3c2CO[C@@H]2CN(Cc4ccccc4)C[C@H]23)cc1 (relative stereo) [Example 6, (5a,8a-trans)-7-benzyl-3-(4-(trifluoromethyl)phenyl)-4,5a,6,7,8,8a-hexa hydropyrrolo[3,4-b][1,2,3]triazolo[1,5-d][1,4]oxazine]
334 nM and 341 nM | 202 to 204 °C |  | CCCC(=O)N1C[C@@H]2[C@@H](C1)OCc1c(-c3ccccc3)nnn12 (relative stereo) [Example 29, 1-((5a,8a-trans)-3-phenyl-5a,6,8,8a-tetrahydropyrrolo[3,4-b][1,2,3]triazolo[1,5-d][1,4]oxazin-7(4H)-yl)butan-1-one]
563 nM | 205 to 206 °C |  | O=C(CCc1ccccc1)N1C[C@@H]2[C@@H](C1)OCc1c(-c3ccccc3)nnn12 (relative stereo) [Example 28, 3-phenyl-1-((5a,8a-trans)-3-phenyl-5a,6,8,8a-tetrahydropyrrolo[3,4-b][1,2,3]triazolo[1,5-d][1,4]oxazin-7(4H)-yl)propan-1-one]
> 1000 nM | 103 to 104 °C |  | Cc1nnn2c1CO[C@@H]1CN(Cc3ccccc3)C[C@H]12 (relative stereo) [Example 5, (5a,8a-trans)-7-benzyl-3-methyl-4,5a,6,7,8,8a-hexahydropyrrolo[3,4-b][1,2,3]triazolo[1,5-d][1,4]oxazine]
375 ± 1.6 nM | 106 to 107 °C |  | CCc1nnn2c1CO[C@@H]1CN(Cc3ccccc3)C[C@H]12 (relative stereo) [Example 8, (5a,8a-trans)-7-benzyl-3-ethyl-4,5a,6,7,8,8a-hexahydropyrrolo[3,4-b][1,2,3]triazolo[1,5-d][1,4]oxazine]
5.47 nM and 6.79 nM |  |  | CCCCCN1C[C@@H]2[C@@H](C1)OCc1c(-c3ccccc3)nnn12 (relative stereo) [Example 41, (5a,8a-trans)-7-pentyl-3-phenyl-4,5a,6,7,8,8a-hexahydropyrrolo[3,4-b][1,2,3]triazolo[1,5-d][1,4]oxazine]
 | 256 to 257 °C |  | c1ccc(-c2nnn3c2COC2CN(c4ccccc4)C[C@H]23)cc1 (stereo partly drawn) [Example 45, (5a,8a-trans)-3,7-diphenyl-4,5a,6,7,8,8a-hexahydropyrrolo[3,4-b][1,2,3] triazolo[1,5-d][1,4]oxazine]

— patent publication US8362011B2, “Tricyclic triazolic compounds” (Laboratories del Dr. Esteve, S.A., priority 2007, dated 2013)
